Reference: PubChem BioAssay AID1963849 (Molecular Pharmacology Branch, DTP, NCI, 2024)
Several values for one entry are separate records, joined by “and”; a condition that tells them apart may be missing. Equal values may be shown once.

System: 299254-011-R-J1-PDC complex spheroid viability
Assay: Anticancer human tumor 299254-011-R-J1-PDC patient-derived melanoma cell line growth inhibition [POLQ]
Settings: for viability, T/C: stronger effect = lower value
Method: Multicellular complex tumor spheroid response to Polymerase (POL) inhibitors (novobiocin, ART-558, RP6685) in combination with a variety of drugs and investigational agents in selected tumor cell lines
The POL inhibitors (novobiocin, ART-558, and RP6685) were evaluated both individually and in combination with standard of care and investigational anticancer small molecules within a complex spheroid model of solid tumors. . Complex spheroids include a stromal component modeled by human endothelial cells (HUVEC) and fibroblasts modeled by human mesenchymal stem cells (MSCs). The concentration ranges selected for each drug and investigational agent were based upon clinically achievable concentrations if the clinical Cmax of the agent was known.
Compounds. The drugs and investigational agents: novobiocin (NSC847541), ART-558 (NSC835418), RP-6685 (NSC848927), peposertib (NSC802822), ceralasertib (NSC780249), elimusertib (NSC800525), camonsertib (NSC841442), AZD-1390 (NSC803789), olaparib (NSC753686), talazoparib (NSC767125), rucaparib (NSC756644), sotorasib (NSC818433), MRTX-1133 (NSC836407), SN-38 (NSC673596), topotecan (NSC609699), epotoside (NSC141540), doxorubicin (NSC123127), gemcitabine (NSC613327), 5-fluorouracil (NSC19893), paclitaxel (NSC125973), vemurafenib (NSC761431), MSA-2 (NSC828583), SN-011 (NSC837082), adavosertib (NSC754352), prexasertib (NSC758257), carboplatin (NSC241240) and oxaliplatin (NSC266046), were obtained from the National Cancer Institute (NCI) Developmental Therapeutics Program Chemical Repository (21). The FDA-approved anticancer drug set is available from the Developmental Therapeutics Program at https://dtp.cancer.gov/organization/dscb/obtaining/. […] The stock solutions were prepared in dimethyl sulfoxide (DMSO, Sigma-Aldrich, St. Louis, MO, cat. D2650), except for the platinum compounds which were prepared in saline (Quality Biological, Gaithersburg, MD, cat. 114-055-101), at 800-fold the tested concentration and stored at -70 degrees C prior to their use. All drugs and investigational agents were tested over a range starting from a high concentration at or near the clinical Cmax and decreasing in half-log increments. If the clinical Cmax for an agent had not been determined, the highest concentration tested was 10 microM, except for SN-38, which was tested at a high concentration of 1 microM.
Cell Culture. All cells were maintained in an incubator at 37 degrees C and 5% CO2 with 95% humidity. The PDC lines were cultured according to standard operating procedures established by the NCI PDMR (https://pdmr.cancer.gov). Table 3 of the manuscript, lists the cell lines along with the number of the three cell types plated to form the mct-spheroids and media for tumor cell growth. After thawing, all PDC lines, except 997537-175-T-J1-PDC and 415267-285-R-J2-PDC, were cultured in Matrigel-coated flasks prepared with a working solution of 1X Ham's F-12 nutrient mix, without supplementation (Thermo Fisher Scientific, cat. 11765054), 100 U/mL penicillin-streptomycin (Thermo Fisher Scientific, cat. 15140122), and 2.5% Matrigel (Corning Inc., Corning, NY, cat. 354248) for the first three passages. The two PDC lines 997537-175-T-J1-PDC and 415267-285-R-J2-PDC were cultured on uncoated flasks. The 857933-349-R-J2-PDC line was cultured in 6C/Colon 1B media containing advanced DMEM/F-12 (Thermo Fisher Scientific, cat. 12634028), 10 mM HEPES (Thermo Fisher Scientific, cat. 15630080), 1X GlutaMAX supplement (Thermo Fisher Scientific, cat. 35050061), 0.1 mg/mL primocin (InvivoGen, San Diego, CA, cat. ant-pm-2), 10% defined fetal bovine serum, heat inactivated (HyClone Laboratories Inc., Logan, UT, cat. SH30070.03HI), 50% L-WRN conditioned media (ATCC, cat. CRL-3276), 1.25 mM N-Acetyl-L-cysteine (Sigma-Aldrich, cat. A9165), 10 mM nicotinamide (Sigma-Aldrich, cat. N0636), 1X B-27 supplement (Thermo Fisher Scientific, cat. 17504044), 1X N-2 supplement (Thermo Fisher Scientific, cat. […]
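Note: spheroids exposed to drugs for one week before measurement.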
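Throughout, for viability, T/C: percent viability relative to DMSO vehicle control taken as 100%.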

**Q.** How did the viability, T/C (compound 0.0316 µM) turn out when `COc1cc2cc(C(=O)CCC(=O)O)sc2cc1OC` was run?
**A.** 107% and 89.4% and 110%

**Q.** And the viability, T/C (compound 0.1 µM)?
**A.** 94.7% and 99.2% and 93.1%

**Q.** What about the viability, T/C (compound 0.316 µM) of the same compound?
**A.** 106% and 87.4% and 93.6%

**Q.** What about the viability, T/C (compound 1 µM) of the same compound?
**A.** 103% and 100% and 97.2%

**Q.** And the viability, T/C (compound 3.16 µM)?
**A.** 113% and 103% and 108%

**Q.** And the viability, T/C (compound 10 µM)?
**A.** 103% and 104% and 101%

**Q.** And the IC50 (curve of compound)?
**A.** > 10 µM

**Q.** `CCCS(=O)(=O)Nc1ccc(F)c(C(=O)c2c[nH]c3ncc(-c4ccc(Cl)cc4)cc23)c1F` was tested. Which viability, T/C (compound 0.0316 µM) did it give?
**A.** 114% and 106% and 96.5%

**Q.** What about the viability, T/C (compound 0.1 µM) of the same compound?
**A.** 99.7% and 109% and 112%

**Q.** What about the viability, T/C (compound 0.316 µM) of the same compound?
**A.** 118% and 95.7% and 123%

**Q.** And the viability, T/C (compound 1 µM)?
**A.** 102% and 122% and 117%

**Q.** What about the viability, T/C (compound 3.16 µM) of the same compound?
**A.** 109% and 107% and 120%

**Q.** And the viability, T/C (compound 10 µM)?
**A.** 50.6% and 47.5% and 69.2%

**Q.** And the IC50 (curve of compound)?
**A.** > 10 µM and 9.54 µM

**Q.** With `Nc1ccn(C2OC(CO)C(O)C2(F)F)c(=O)n1` (stereo unspecified) + Cc1cccc(N(C)C(=O)C2C(O)CCN2c2nc(C)cc(C(F)(F)F)c2C#N)c1 as the compound, how does the IC50 (curve of first compound, second compound 0.0316 µM) read?
**A.** 0.0653 µM

**Q.** What about the IC50 (curve of first compound, second compound 0.1 µM) of the same compound?
**A.** 0.0737 µM

**Q.** And the IC50 (curve of first compound, second compound 0.316 µM)?
**A.** 0.0742 µM

**Q.** What about the IC50 (curve of first compound, second compound 1 µM) of the same compound?
**A.** 0.0787 µM

**Q.** What about the IC50 (curve of first compound, second compound 3.16 µM) of the same compound?
**A.** 0.0418 µM

**Q.** And the IC50 (curve of first compound, second compound 10 µM)?
**A.** 0.0764 µM

**Q.** What about the viability, T/C (second compound 0.0316 µM, first compound 0.0316 µM) of the same compound?
**A.** 66.5%

**Q.** And the viability, T/C (second compound 0.0316 µM, first compound 0.1 µM)?
**A.** 41.4%

**Q.** What about the viability, T/C (second compound 0.0316 µM, first compound 0.316 µM) of the same compound?
**A.** 31.7%

**Q.** What about the viability, T/C (second compound 0.0316 µM, first compound 1 µM) of the same compound?
**A.** 37.7%

**Q.** What about the viability, T/C (second compound 0.0316 µM, first compound 3.16 µM) of the same compound?
**A.** 40.8%

**Q.** What about the viability, T/C (second compound 0.0316 µM, first compound 10 µM) of the same compound?
**A.** 36.6%

**Q.** What about the viability, T/C (second compound 0.1 µM, first compound 0.0316 µM) of the same compound?
**A.** 66%

**Q.** What about the viability, T/C (second compound 0.1 µM, first compound 0.1 µM) of the same compound?
**A.** 43.7%

**Q.** What about the viability, T/C (second compound 0.1 µM, first compound 0.316 µM) of the same compound?
**A.** 46.8%

**Q.** And the viability, T/C (second compound 0.1 µM, first compound 1 µM)?
**A.** 38%

**Q.** What about the viability, T/C (second compound 0.1 µM, first compound 3.16 µM) of the same compound?
**A.** 42.8%

**Q.** What about the viability, T/C (second compound 0.1 µM, first compound 10 µM) of the same compound?
**A.** 43.5%

**Q.** And the viability, T/C (second compound 0.316 µM, first compound 0.0316 µM)?
**A.** 70.5%

**Q.** What about the viability, T/C (second compound 0.316 µM, first compound 0.1 µM) of the same compound?
**A.** 42.3%

**Q.** And the viability, T/C (second compound 0.316 µM, first compound 0.316 µM)?
**A.** 41.2%

**Q.** What about the viability, T/C (second compound 0.316 µM, first compound 1 µM) of the same compound?
**A.** 42%

**Q.** And the viability, T/C (second compound 0.316 µM, first compound 3.16 µM)?
**A.** 35.2%

**Q.** And the viability, T/C (second compound 0.316 µM, first compound 10 µM)?
**A.** 35.8%

**Q.** What about the viability, T/C (second compound 1 µM, first compound 0.0316 µM) of the same compound?
**A.** 76.9%

**Q.** And the viability, T/C (second compound 1 µM, first compound 0.1 µM)?
**A.** 44.1%

**Q.** And the viability, T/C (second compound 1 µM, first compound 0.316 µM)?
**A.** 33.5%

**Q.** What about the viability, T/C (second compound 1 µM, first compound 1 µM) of the same compound?
**A.** 33.7%

**Q.** What about the viability, T/C (second compound 1 µM, first compound 3.16 µM) of the same compound?
**A.** 49.9%

**Q.** What about the viability, T/C (second compound 1 µM, first compound 10 µM) of the same compound?
**A.** 40.3%

**Q.** What about the viability, T/C (second compound 3.16 µM, first compound 0.0316 µM) of the same compound?
**A.** 59.1%

**Q.** And the viability, T/C (second compound 3.16 µM, first compound 0.1 µM)?
**A.** 43%

**Q.** And the viability, T/C (second compound 3.16 µM, first compound 0.316 µM)?
**A.** 37.1%

**Q.** What about the viability, T/C (second compound 3.16 µM, first compound 1 µM) of the same compound?
**A.** 41.1%

**Q.** And the viability, T/C (second compound 3.16 µM, first compound 3.16 µM)?
**A.** 42.5%

**Q.** What about the viability, T/C (second compound 3.16 µM, first compound 10 µM) of the same compound?
**A.** 37.6%

**Q.** And the viability, T/C (second compound 10 µM, first compound 0.0316 µM)?
**A.** 72.8%

**Q.** And the viability, T/C (second compound 10 µM, first compound 0.1 µM)?
**A.** 44.2%

**Q.** And the viability, T/C (second compound 10 µM, first compound 0.316 µM)?
**A.** 34.1%

**Q.** And the viability, T/C (second compound 10 µM, first compound 1 µM)?
**A.** 39.8%

**Q.** And the viability, T/C (second compound 10 µM, first compound 3.16 µM)?
**A.** 32.9%

**Q.** What about the viability, T/C (second compound 10 µM, first compound 10 µM) of the same compound?
**A.** 48.1%
